Cc1cccc2sc(NN)nc12
solubility (mole fraction) (in acetone, 273.15 K): 0.00958
solubility (mole fraction) (in acetone, 278.15 K): 0.0118
solubility (mole fraction) (in acetone, 283.15 K): 0.0142
solubility (mole fraction) (in acetone, 288.15 K): 0.0172
solubility (mole fraction) (in acetone, 293.15 K): 0.0203
solubility (mole fraction) (in acetone, 298.15 K): 0.024
solubility (mole fraction) (in acetone, 303.15 K): 0.0285
solubility (mole fraction) (in acetone, 308.15 K): 0.0335
solubility (mole fraction) (in acetone, 313.15 K): 0.0391
solubility (mole fraction) (in acetone, 318.15 K): 0.0456
solubility (mole fraction) (in ethanol, 273.15 K): 0.000807
solubility (mole fraction) (in ethanol, 278.15 K): 0.00103
solubility (mole fraction) (in ethanol, 283.15 K): 0.00131
solubility (mole fraction) (in ethanol, 288.15 K): 0.00165
solubility (mole fraction) (in ethanol, 293.15 K): 0.00203
solubility (mole fraction) (in ethanol, 298.15 K): 0.00252
solubility (mole fraction) (in ethanol, 303.15 K): 0.00313
solubility (mole fraction) (in ethanol, 308.15 K): 0.00377
solubility (mole fraction) (in ethanol, 313.15 K): 0.0046
solubility (mole fraction) (in ethanol, 318.15 K): 0.00555
solubility (mole fraction) (in ethyl acetate, 273.15 K): 0.00359
solubility (mole fraction) (in ethyl acetate, 278.15 K): 0.00453
solubility (mole fraction) (in ethyl acetate, 283.15 K): 0.00569
solubility (mole fraction) (in ethyl acetate, 288.15 K): 0.00696
solubility (mole fraction) (in ethyl acetate, 293.15 K): 0.00848
solubility (mole fraction) (in ethyl acetate, 298.15 K): 0.0101
solubility (mole fraction) (in ethyl acetate, 303.15 K): 0.0124
solubility (mole fraction) (in ethyl acetate, 308.15 K): 0.0147
solubility (mole fraction) (in ethyl acetate, 313.15 K): 0.0176
solubility (mole fraction) (in ethyl acetate, 318.15 K): 0.0209
solubility (mole fraction) (in isopropanol, 273.15 K): 0.000928
solubility (mole fraction) (in isopropanol, 278.15 K): 0.00123
solubility (mole fraction) (in isopropanol, 283.15 K): 0.00153
solubility (mole fraction) (in isopropanol, 288.15 K): 0.00191
solubility (mole fraction) (in isopropanol, 293.15 K): 0.00235
solubility (mole fraction) (in isopropanol, 298.15 K): 0.00288
solubility (mole fraction) (in isopropanol, 303.15 K): 0.00353
solubility (mole fraction) (in isopropanol, 308.15 K): 0.00429
solubility (mole fraction) (in isopropanol, 313.15 K): 0.00519
solubility (mole fraction) (in isopropanol, 318.15 K): 0.0062
solubility (mole fraction) (in methanol, 273.15 K): 0.000589
solubility (mole fraction) (in methanol, 278.15 K): 0.000758
solubility (mole fraction) (in methanol, 283.15 K): 0.00095
solubility (mole fraction) (in methanol, 288.15 K): 0.00119
solubility (mole fraction) (in methanol, 293.15 K): 0.00151
solubility (mole fraction) (in methanol, 298.15 K): 0.00185
solubility (mole fraction) (in methanol, 303.15 K): 0.00232
solubility (mole fraction) (in methanol, 308.15 K): 0.00284
solubility (mole fraction) (in methanol, 313.15 K): 0.00348
solubility (mole fraction) (in methanol, 318.15 K): 0.00422
solubility (mole fraction) (in n-butanol, 273.15 K): 0.00137
solubility (mole fraction) (in n-butanol, 278.15 K): 0.00168
solubility (mole fraction) (in n-butanol, 283.15 K): 0.00216
solubility (mole fraction) (in n-butanol, 288.15 K): 0.00263
solubility (mole fraction) (in n-butanol, 293.15 K): 0.00329
solubility (mole fraction) (in n-butanol, 298.15 K): 0.00403
solubility (mole fraction) (in n-butanol, 303.15 K): 0.00505
solubility (mole fraction) (in n-butanol, 308.15 K): 0.00616
solubility (mole fraction) (in n-butanol, 313.15 K): 0.00755
solubility (mole fraction) (in n-butanol, 318.15 K): 0.00904
solubility (mole fraction) (in n-propanol, 273.15 K): 0.00115
solubility (mole fraction) (in n-propanol, 278.15 K): 0.00143
solubility (mole fraction) (in n-propanol, 283.15 K): 0.00178
solubility (mole fraction) (in n-propanol, 288.15 K): 0.00218
solubility (mole fraction) (in n-propanol, 293.15 K): 0.00272
solubility (mole fraction) (in n-propanol, 298.15 K): 0.0033
solubility (mole fraction) (in n-propanol, 303.15 K): 0.00395
solubility (mole fraction) (in n-propanol, 308.15 K): 0.00481
solubility (mole fraction) (in n-propanol, 313.15 K): 0.00573
solubility (mole fraction) (in n-propanol, 318.15 K): 0.00696
solubility (mole fraction) (in toluene, 273.15 K): 0.00227
solubility (mole fraction) (in toluene, 278.15 K): 0.00276
solubility (mole fraction) (in toluene, 283.15 K): 0.00366
solubility (mole fraction) (in toluene, 288.15 K): 0.00473
solubility (mole fraction) (in toluene, 293.15 K): 0.00583
solubility (mole fraction) (in toluene, 298.15 K): 0.00736
solubility (mole fraction) (in toluene, 303.15 K): 0.00925
solubility (mole fraction) (in toluene, 308.15 K): 0.0116
solubility (mole fraction) (in toluene, 313.15 K): 0.0145
solubility (mole fraction) (in toluene, 318.15 K): 0.0178
solubility (mole fraction) (in water, 273.15 K): 7.03e-06
solubility (mole fraction) (in water, 278.15 K): 9.04e-06
solubility (mole fraction) (in water, 283.15 K): 1.18e-05
solubility (mole fraction) (in water, 288.15 K): 1.51e-05
solubility (mole fraction) (in water, 293.15 K): 1.96e-05
solubility (mole fraction) (in water, 298.15 K): 2.56e-05
solubility (mole fraction) (in water, 303.15 K): 3.21e-05
solubility (mole fraction) (in water, 308.15 K): 4.05e-05
solubility (mole fraction) (in water, 313.15 K): 5.05e-05
solubility (mole fraction) (in water, 318.15 K): 6.25e-05
